Patent US6673345B2, “Anti-parasite astacin metalloendopeptidase antibodies” (Heska Corporation, priority 1994, dated 2004)
“Also recorded” adds a separate entry of the source.

What was measured:
[1] = target: astacin (Astacus astacus, UniProt P07584); settings: cited from earlier work
[2] = system: D. immitis larvae (L3); assay: Effect of protease inhibitors on D. immitis larval molting in culture; type: cell-based, Dirofilaria immitis; settings: for % reduction (of molt versus control): 72 hours; for % molt: L3 in NI medium, evaluated at 72 hours, control 82.6; for Observed movement and condition of treated larvae compared to controls: observed daily throughout the study; for Effect on ability of larvae to molt (in words): treatment of L3, ANOVA overall P=0.0001
[3] = system: ES proteins displaying metalloprotease activity (about 60 kD, about 95 kD, at least about 200 kD); settings: 2 mM EDTA in reaction buffer, about 37° C., 66 hours

Sequence of astacin (P07584 50-249 limits assumed): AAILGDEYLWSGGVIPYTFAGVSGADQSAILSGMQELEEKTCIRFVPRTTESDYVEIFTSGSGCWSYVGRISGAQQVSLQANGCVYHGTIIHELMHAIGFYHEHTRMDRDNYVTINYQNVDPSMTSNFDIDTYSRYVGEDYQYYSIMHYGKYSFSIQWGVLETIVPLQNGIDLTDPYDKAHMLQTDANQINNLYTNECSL

Molecule	Inhibition of astacin activity [1]	% reduction (of molt versus control) ([2]; 1.0 mM inhibitor)	% molt ([2]; 1.0 mM inhibitor)	% reduction (of molt versus control) ([2]; 2.5 mM inhibitor)	% molt ([2]; 2.5 mM inhibitor)	% reduction (of molt versus control) ([2]; 5.0 mM inhibitor)	% molt ([2]; 5.0 mM inhibitor)	Observed movement and condition of treated larvae compared to controls [2]	Effect on ability of larvae to molt (in words) [2]	Inhibition of ES metalloprotease (collagenase) activity [3]
c1cnc2c(c1)ccc1cccnc12 [1,10-phenanthroline]	inhibited	–	–	–	–	–	–	–	–	–
CC(C)C[C@H](NC(=O)[C@@H](O)[C@H](N)Cc1ccccc1)C(=O)O [Bestatin]	–	27.3%	60.0%	57.9%	34.8%	94.1%	4.9%	moved much more slowly	significantly reduces the ability of the larvae to molt	–
O=C(O)CN(CCN(CC(=O)O)CC(=O)O)CC(=O)O [EDTA, ethylene diamine tetraacetic acid]	inhibited	–	–	–	–	–	–	–	–	completely inhibited
CC(C)C[C@H](NP(=O)(O)O[C@@H]1O[C@@H](C)[C@H](O)[C@@H](O)[C@H]1O)C(=O)N[C@@H](Cc1c[nH]c2ccccc12)C(=O)O [Phosphoramidon]	–	48.4%	42.6%	85.1%	12.3%	100.0%	0.0%	very active; also recorded: in poor shape by the end of the study	significantly reduces the ability of the larvae to molt	–
TIMP1: Tissue inhibitor of metalloproteinases, protein inhibitor of zinc endopeptidases	do not demonstrate inhibitory activity	–	–	–	–	–	–	–	–	–
